The target of assay [1] is human CB2 receptors (Homo sapiens (Human), UniProt P34972). Kind of assay: human CB2 radioligand binding assay ([3H]CP 55,940 competition). Conditions: HEK293 membranes, 0.5 nM [3H]CP 55,940; read-out: human CB2 (Ki). How it is done:
(§1) The CB1 and CB2 radioligand binding assays described herein are utilized to ascertain the affinity of compounds of the present application for binding to CB2 relative to CB1 receptors.
HEK293 cells stably expressing human CB2 receptors were grown until a confluent monolayer was formed. Briefly, the cells were harvested and homogenized in TE buffer (50 mM Tris-HCl, 1 mM MgCl2, and 1 mM EDTA) using a polytron for 2×10 second bursts in the presence of protease inhibitors, followed by centrifugation at 45,000×g for 20 minutes. The final membrane pellet was re-homogenized in storage buffer (50 mM Tris-HCl, 1 mM MgCl2, and 1 mM EDTA and 10% sucrose) and frozen at −78° C. until used. Saturation binding reactions were initiated by the addition of membrane preparation (protein concentration of 5 μg/well for human CB2) into wells of a deep well plate containing [^3H]CP 55,940 (120 Ci/mmol, a nonselective CB agonist commercially available from Tocris) in assay buffer (50 mM Tris, 2.5 mM EDTA, 5 mM MgCl2, and 0.5 mg/mL fatty acid free BSA, pH 7.4). After 90 min incubation at 30° C., binding reaction was terminated by the addition of 300 μL/well of cold assay buffer followed by rapid vacuum filtration through a UniFilter-96 GF/C filter plates (pre-soaked in 1 mg/mL BSA for 2 hours). The bound activity was counted in a TopCount using Microscint-20. Saturation experiments were conducted with twelve concentrations of [^3H]CP 55,940 ranging from 0.01 to 8 nM. Competition experiments were conducted with 0.5 nM [^3H]CP 55,940 and five concentrations (0.01 nM to 10 μM) of displacing ligands. The addition of 10 μM unlabeled CP 55,940 (Tocris, Ellisville, Mo.) was used to assess nonspecific binding.

Assay [2] addresses rat CB2 receptors (Rattus norvegicus (Rat), UniProt Q9QZN9). Kind of assay: rat CB2 radioligand binding assay ([3H]CP 55,940 competition). The note with it: HEK293 membranes, 0.5 nM [3H]CP 55,940. On the procedure:
as §1
HEK293 cells stably expressing rat CB2 receptors were grown until a confluent monolayer was formed. Briefly, the cells were harvested and homogenized in TE buffer (50 mM Tris-HCl, 1 mM MgCl2, and 1 mM EDTA) using a polytron for 2×10 second bursts in the presence of protease inhibitors, followed by centrifugation at 45,000×g for 20 minutes. The final membrane pellet was re-homogenized in storage buffer (50 mM Tris-HCl, 1 mM MgCl2, and 1 mM EDTA and 10% sucrose) and frozen at −78° C. until used. Saturation binding reactions were initiated by the addition of membrane preparation (protein concentration of 20 μg/well for rat CB2) into wells of a deep well plate containing [^3H]CP 55,940 (120 Ci/mmol, a nonselective CB agonist commercially available from Tocris) in assay buffer (50 mM Tris, 2.5 mM EDTA, 5 mM MgCl2, and 0.5 mg/mL fatty acid free BSA, pH 7.4). After 45 min incubation at 30° C., binding reaction was terminated by the addition of 300 μl/well of cold assay buffer followed by rapid vacuum filtration through a UniFilter-96 GF/C filter plates (pre-soaked in 1 mg/mL BSA for 2 hours). The bound activity was counted in a TopCount using Microscint-20. Saturation experiments were conducted with twelve concentrations of [^3H]CP 55,940 ranging from 0.01 to 8 nM. Competition experiments were conducted with 0.5 nM [^3H]CP 55,940 and five concentrations of displacing ligands selected from the range of 0.01 nM to 10 μM. The addition of 10 μM unlabeled CP 55,940 (Tocris, Ellisville, Mo.) was used to assess nonspecific binding.

The target in assay [3] is rat CB2 receptors (HEK cells) (Rattus norvegicus (Rat), UniProt Q9QZN9). Put plainly: rat CB2 cyclase functional assay (HitHunter cAMP). In kind it is cell-based. On the procedure:
(§2) The cyclase functional assays were performed using the HitHunter™ cAMP assay kit from DiscoveRx (Fremont, Calif.) according to vendor's protocol. Briefly, HEK cells expressing CB2 or CB1 receptors (rat or human) were detached using cell dissociation buffer (Invitrogen, Carlsbad, Calif.), dispersed and placed in suspension at 10,000 cells per well in 96 well plates prior to the assay. Cell suspensions were incubated at 37° C. for 20 min with variable concentrations of test ligands and or 10 μM CP 55,940-positive control in the presence of a fixed concentration of forskolin (18 μM for rat CB2 and 37 μM for rat CB1) in Dulbescco's phosphate-buffered saline (Invitrogen, Carlsbad, Calif.) supplemented with bovine serum albumin (0.01% final concentration). The reactions were terminated by the addition of lysis buffer and the luminescence was detected following the procedure according to the manufacturer's instructions. EC50 values were calculated using sigmoidal dose-response curve fitting from Prism (GraphPad).

The target in assay [4] is rat CB1 receptors (HEK cells) (Rattus norvegicus (Rat), UniProt P20272). Put plainly: rat CB1 cyclase functional assay (HitHunter cAMP). In kind it is cell-based. On the procedure:
as §2

The mark [5] stands for this setting: HEK cells, forskolin 18 μM, read-out: rat CB2 cyclase (EC50).

The results in this text go back to patent US8846730B2, “Compounds as cannabinoid receptor ligands” (priority 2008, dated 2014).

SMILES strings stand for the structures. Like-named read-outs stand apart in the source and are kept apart here.

Sequence of rat CB1 receptors (HEK cells) (P20272 whole entry): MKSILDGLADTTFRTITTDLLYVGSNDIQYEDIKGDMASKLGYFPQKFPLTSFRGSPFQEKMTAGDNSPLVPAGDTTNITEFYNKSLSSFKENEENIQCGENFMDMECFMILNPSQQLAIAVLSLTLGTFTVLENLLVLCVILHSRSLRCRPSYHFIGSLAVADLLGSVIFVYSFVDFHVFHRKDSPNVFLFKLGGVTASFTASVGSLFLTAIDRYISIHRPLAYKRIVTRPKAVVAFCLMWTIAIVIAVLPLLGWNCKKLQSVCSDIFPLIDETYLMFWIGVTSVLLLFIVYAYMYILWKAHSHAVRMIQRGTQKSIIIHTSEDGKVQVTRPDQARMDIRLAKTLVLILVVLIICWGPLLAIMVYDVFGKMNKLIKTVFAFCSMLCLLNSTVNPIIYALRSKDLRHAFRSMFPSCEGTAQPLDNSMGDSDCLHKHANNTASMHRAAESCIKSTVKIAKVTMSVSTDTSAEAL
Sequence of human CB2 receptors (P34972 whole entry): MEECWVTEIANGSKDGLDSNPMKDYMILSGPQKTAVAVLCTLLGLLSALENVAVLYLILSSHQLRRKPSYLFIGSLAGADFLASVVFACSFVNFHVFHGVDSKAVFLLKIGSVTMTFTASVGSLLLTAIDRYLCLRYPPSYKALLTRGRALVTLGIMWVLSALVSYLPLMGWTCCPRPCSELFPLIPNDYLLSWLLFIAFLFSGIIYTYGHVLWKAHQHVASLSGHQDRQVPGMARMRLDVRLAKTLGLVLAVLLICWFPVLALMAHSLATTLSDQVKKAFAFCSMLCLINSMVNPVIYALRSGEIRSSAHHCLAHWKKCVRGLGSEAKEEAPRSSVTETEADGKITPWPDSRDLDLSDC

For orientation: Ki means the equilibrium dissociation constant of an inhibitor or competing ligand from its target. Usually EC50 stands for the concentration at which the effect is half-maximal. Consider `CN1CC(COc2ccc(C(F)(F)F)cc2C(=O)/N=c2\sc(C(C)(C)C)cn2C[C@H]2CCCO2)C1` [Example 12, N-[(2Z)-5-tert-butyl-3-[(2R)-tetrahydrofuran-2-ylmethyl]-1,3-thiazol-2(3H)-ylidene]-2-[(1-methylazetidin-3-yl)methoxy]-5-(trifluoromethyl)benzamide], for which the inhibition constant Ki in assay [1] came to 208 nM; in assay [2], 28 nM. The EC50 in assay [3] (setting [5]) came to 2.07 nM; in assay [4], 10800 nM.
As for `CN1CCC(COc2ccc(C(F)(F)F)cc2C(=O)/N=c2\sc(C(C)(C)C)cn2C[C@H]2CCCO2)CC1` [Example 15, N-[(2Z)-5-tert-butyl-3-[(2R)-tetrahydrofuran-2-ylmethyl]-1,3-thiazol-2(3H)-ylidene]-2-[(1-methylpiperidin-4-yl)methoxy]-5-(trifluoromethyl)benzamide], the inhibition constant (Ki) in assay [1] stood at 1000 nM; in assay [2], 83 nM. In addition, the EC50 is 6.26 nM in assay [3] (setting [5]) and 13000 nM in assay [4].
For the molecule `Cn1ccnc1COc1ccc(C(F)(F)F)cc1C(=O)/N=c1\sc(C(C)(C)C)cn1C[C@H]1CCCO1` [Example 17, N-[(2Z)-5-tert-butyl-3-[(2R)-tetrahydrofuran-2-ylmethyl]-1,3-thiazol-2(3H)-ylidene]-2-[(1-methyl-1H-imidazol-2-yl)methoxy]-5-(trifluoromethyl)benzamide], the Ki in assay [1] was determined as 53 nM; in assay [2], 15 nM. Further, the EC50 in assay [3] (setting [5]) was 2.75 nM; in assay [4], over 27000 nM.
With `CC(C)(C)c1cn(C[C@H]2CCCO2)/c(=N/C(=O)c2cc(C(F)(F)F)ccc2OCc2ccccn2)s1` [Example 18, N-[(2Z)-5-tert-butyl-3-[(2R)-tetrahydrofuran-2-ylmethyl]-1,3-thiazol-2(3H)-ylidene]-2-(pyridin-2-ylmethoxy)-5-(trifluoromethyl)benzamide], the values for the Ki in assay [1] and in assay [2] were 20 nM and 6 nM, respectively. Moreover, the results for the EC50 in assay [3] (setting [5]) and in assay [4] were 1.02 nM and over 27000 nM, respectively.
With `CC(C)(C)c1cn(C[C@H]2CCCO2)/c(=N/C(=O)c2cc(C(F)(F)F)ccc2OCc2cnccn2)s1` [Example 19, N-[(2Z)-5-tert-butyl-3-[(2R)-tetrahydrofuran-2-ylmethyl]-1,3-thiazol-2(3H)-ylidene]-2-(pyrazin-2-ylmethoxy)-5-(trifluoromethyl)benzamide], the Ki in assay [1] and in assay [2] was 5 nM in each case. Further, the figures for the EC50 in assay [3] (setting [5]) and in assay [4] were 0.41 nM and 3390 nM, respectively.
Take `CC(C)(C)c1cn(C[C@H]2CCCO2)/c(=N/C(=O)c2cc(C(F)(F)F)ccc2OCc2cccc[n+]2[O-])s1` [Example 20, N-[(2Z)-5-tert-butyl-3-[(2R)-tetrahydrofuran-2-ylmethyl]-1,3-thiazol-2(3H)-ylidene]-2-[(1-oxidopyridin-2-yl)methoxy]-5-(trifluoromethyl)benzamide]: the Ki amounted to 209 nM in assay [1] and 51 nM in assay [2]. For the same molecule, the EC50 is 0.47 nM in assay [3] (setting [5]) and 7980 nM in assay [4].
In the case of `CC(C)(C)c1cn(C[C@H]2CCCO2)/c(=N/C(=O)c2cc(C(F)(F)F)ccc2OCc2cccnc2)s1` [Example 21, N-[(2Z)-5-tert-butyl-3-[(2R)-tetrahydrofuran-2-ylmethyl]-1,3-thiazol-2(3H)-ylidene]-2-(pyridin-3-ylmethoxy)-5-(trifluoromethyl)benzamide], the Ki turned out to be 13 nM in assay [1] and 10 nM in assay [2]. Also, the 50% effective concentration (EC50) in assay [3] came out at 0.21 nM; in assay [4] it was 6220 nM.
`CC(C)(C)c1cn(C[C@H]2CCCO2)/c(=N/C(=O)c2cc(C(F)(F)F)ccc2OC[C@H]2CCCO2)s1` [Example 22, N-[(2Z)-5-tert-butyl-3-[(2R)-tetrahydrofuran-2-ylmethyl]-1,3-thiazol-2(3H)-ylidene]-2-[(2R)-tetrahydrofuran-2-ylmethoxy]-5-(trifluoromethyl)benzamide]: the Ki in assay [1] was found to be 3 nM; in assay [2], 0.5 nM. Besides, the EC50 in assay [3] was 0.07 nM; in assay [4], 3230 nM.
With `CC(C)(C)c1cn(C[C@H]2CCCO2)/c(=N/C(=O)c2cc(C(F)(F)F)ccc2OC[C@@H]2CCCO2)s1` [Example 23, N-[(2Z)-5-tert-butyl-3-[(2R)-tetrahydrofuran-2-ylmethyl]-1,3-thiazol-2(3H)-ylidene]-2-[(2S)-tetrahydrofuran-2-ylmethoxy]-5-(trifluoromethyl)benzamide], the values for the inhibitory constant (Ki) in assay [1] and in assay [2] were 0.5 nM and 0.3 nM, respectively. The values for the EC50 in assay [3] and in assay [4] were 0.14 nM and 941 nM, respectively.
In the case of `CN1CCC[C@H]1COc1ccc(C(F)(F)F)cc1C(=O)/N=c1\sc(C(C)(C)C)cn1C[C@H]1CCCO1` [Example 24, N-[(2Z)-5-tert-butyl-3-[(2R)-tetrahydrofuran-2-ylmethyl]-1,3-thiazol-2(3H)-ylidene]-2-{[(2S)-1-methylpyrrolidin-2-yl]methoxy}-5-(trifluoromethyl)benzamide], the inhibitory constant (Ki) was 4.6 nM in assay [1] and 3.4 nM in assay [2]. Moreover, the EC50 came out at 0.09 nM in assay [3] (setting [5]) and 1990 nM in assay [4].
In the case of `CN1CCC[C@@H]1COc1ccc(C(F)(F)F)cc1C(=O)/N=c1\sc(C(C)(C)C)cn1C[C@H]1CCCO1` [Example 26, N-[(2Z)-5-tert-butyl-3-[(2R)-tetrahydrofuran-2-ylmethyl]-1,3-thiazol-2(3H)-ylidene]-2-{[(2R)-1-methylpyrrolidin-2-yl]methoxy}-5-(trifluoromethyl)benzamide], the inhibitory constant (Ki) in assay [1] stood at 206 nM; in assay [2], 70 nM. The EC50 in assay [3] (setting [5]) worked out at 2.18 nM; in assay [4] it was 11200 nM.
Consider `CN1CC[C@@H](COc2ccc(C(F)(F)F)cc2C(=O)/N=c2\sc(C(C)(C)C)cn2C[C@H]2CCCO2)C1` [Example 30, N-[(2Z)-5-tert-butyl-3-[(2R)-tetrahydrofuran-2-ylmethyl]-1,3-thiazol-2(3H)-ylidene]-2-{[(3R)-1-methylpyrrolidin-3-yl]methoxy}-5-(trifluoromethyl)benzamide], for which the Ki in assay [1] is 141 nM; in assay [2] it was 29 nM. Further, the concentration for a half-maximal effect (EC50) was found to be 4.98 nM in assay [3] and 12100 nM in assay [4].
For `CN1CC[C@H](COc2ccc(C(F)(F)F)cc2C(=O)/N=c2\sc(C(C)(C)C)cn2C[C@H]2CCCO2)C1` [Example 31, N-[(2Z)-5-tert-butyl-3-[(2R)-tetrahydrofuran-2-ylmethyl]-1,3-thiazol-2(3H)-ylidene]-2-{[(3 S)-1-methylpyrrolidin-3-yl]methoxy}-5-(trifluoromethyl)benzamide], in that order: 92 nM, 84 nM, 3.58 nM and 10700 nM.
